Key:
Type in all cases: cell-based
[1] = test system: human cervical tumor cell line HeLa (ATCC CCL-2); assay: SAC-Formation - Nocodazole-Induced Assay; conditions: Homo sapiens, HeLa, 24 h, HeLa cells, nocodazole 0.1 μg/ml together with test compound, decrease of mitotic cells (phospho-histone H3 Ser10)
Source text: (§1) The spindle assembly checkpoint assures the proper segregation of chromosomes during mitosis. Upon entry into mitosis, chromosomes begin to condensate which is accompanied by the phosphorylation of histone H3 on serine 10. Dephosphorylation of histone H3 on serine 10 begins in anaphase and ends at early telophase. Accordingly, phosphorylation of histone H3 on serine 10 can be utilized as a marker of cells in mitosis. Nocodazole is a microtubule destabilizing substance. Paclitaxel is a microtubule stabilizing compound. Thus, nocodazole as well as paclitaxel interfere with microtubule dynamics and mobilize the spindle assembly checkpoint. […] The mitotic breakthrough can be detected by the decrease of cells with phosphorylation of histone H3 on serine 10. This decline is used as a marker to determine the capability of compounds of the present invention to induce a mitotic breakthrough. The typical morphological alteration of nuclei with a prematurely completed mitosis after SAC-inhibition can be monitored via image analysis routines supporting those findings.
(§2) The nocodazole and paclitaxel variations were used to focus on compounds that are capable of inhibiting a SAC induced by both microtubule destabilization as well as microtubule stabilization. When SAC inducing agents and compounds are given simultaneously inhibitors that effectively block the SAC during formation or abrogation are identified. When cells are incubated with a SAC inducing agent and the SAC interfering compound is given after a defined time, inhibitors are identified that effectively block SAC abrogation.
(§3) Cultivated cells of the human cervical tumor cell line HeLa (ATCC CCL-2) were plated at a density of 1000 cells/well in a 1536-well microtiter plate in 2 μl PAA Ham's F12 Medium supplemented with 1% (v/v) glutamine, 1% (v/v) penicillin, 1% (v/v) streptomycin and 10% (v/v) fetal calf serum. After incubation overnight at 37° C., 10 μl/well nocodazole at a final concentration of 0.1 μg/ml were added to cells. Test compounds solubilized in dimethyl sulfoxide (DMSO) were added at various concentrations (0 μM, as well as in the range of 0.005 μM-20 μM; the final concentration of the solvent DMSO was 0.5% (v/v)). Cells were incubated for 24 h at 37° C. in the presence of test compounds in combination with nocodazole. Thereafter, cells were fixed in 4% (v/v) paraformaldehyde in phosphate buffered saline (PBS) at 4° C. overnight then permeabilized in 0.1% (v/v) Triton X™ 100 in PBS at room temperature for 20 min and blocked in 0.5% (v/v) bovine serum albumin (BSA) in PBS at room temperature for 15 min. After washing with PBS, 5 μl/well antibody solution (anti-phospho-histone H3 clone 3H10, FITC; Millipore, Cat#16-222; 1:1000 dilution) was added to cells, which were incubated for 2 h at room temperature. Afterwards, cells were washed with PBS and 5 μl/well solution of HOECHST 33342 dye (5 μg/ml) was added to cells and cells were incubated 15 min at room temperature in the dark. Cells were washed twice with PBS then covered with PBS and stored at 4° C. until analysis. Images were acquired with a PERKIN ELMER OPERA™ High-Content Analysis reader. Images were analyzed with image analysis software MetaXpress™ from Molecular devices utilizing the Mitotic Index application module. In this assay both labels HOECHST 33342 and phosphorylated Histone H3 on serine 10 were measured. HOECHST 33342 labels the DNA and is used to count the cell number. The staining of phosphorylated Histone H3 on serine 10 determines the number of mitotic cells. […] Otherwise cells were arrested at G2/M phase of the cell cycle progression. The raw assay data were further analyzed by four-parametric hill equation using Genedata's Assay Analyzer and Condoseo software.

[2] = test system: human cervical tumor cell line HeLa (ATCC CCL-2); assay: SAC-Formation - Paclitaxel-Induced Assay; conditions: Homo sapiens, HeLa, 24 h, HeLa cells, paclitaxel 0.05 μM, test range 0.005 μM-20 μM, read-out: IC50 [mol/l] SAC-Formation - Paclitaxel-Induced Assay
Source text: as §1, §2
Cultivated cells of the human cervical tumor cell line HeLa (ATCC CCL-2) were plated at a density of 1000 cells/well in a 1536-well microtiter plate in 2 μl PAA
as §3, with “Ham's” for “Cultivated cells of the human cervical tumor cell line HeLa (ATCC CCL-2) were plated at a density of 1000 cells/well in a 1536-well microtiter plate in 2 μl PAA Ham's”, “paclitaxel” for “nocodazole”, “0.05 μM” for “0.1 μg/ml”, “μM -20” for “μM-20”, “paclitaxel.” for “nocodazole.”

HeLa = assay: Proliferation assay (crystal violet), HeLa; conditions: Homo sapiens, HeLa, 96 h, HeLa cells; 4 days incubation; crystal violet staining; read-out: IC50 inhibition of proliferation, HeLa
Description: Cultivated tumor cells (cells were ordered from ATCC, except HeLa-MaTu and HeLa-MaTu-ADR, which were ordered from EPO-GmbH, Berlin) were plated at a density of 1000 to 5000 cells/well, depending on the growth rate of the respective cell line, in a 96-well multititer plate in 200 μL of their respective growth medium supplemented 10% fetal calf serum. After 24 hours, the cells of one plate (zero-point plate) were stained with crystal violet (see below), while the medium of the other plates was replaced by fresh culture medium (200 μl), to which the test substances were added in various concentrations (0 μM, as well as in the range of 0.001-10 μM; the final concentration of the solvent dimethyl sulfoxide was 0.5%). The cells were incubated for 4 days in the presence of test substances. Cell proliferation was determined by staining the cells with crystal violet: the cells were fixed by adding 20 μl/measuring point of an 11% glutaric aldehyde solution for 15 minutes at room temperature. After three washing cycles of the fixed cells with water, the plates were dried at room temperature. The cells were stained by adding 100 μl/measuring point of a 0.1% crystal violet solution (pH 3.0). After three washing cycles of the stained cells with water, the plates were dried at room temperature. The dye was dissolved by adding 100 μl/measuring point of a 10% acetic acid solution. Absorbtion was determined by photometry at a wavelength of 595 nm. The change of cell number, in percent, was calculated by normalization of the measured values to the aborbtion values of the zero-point plate (=0%) and the absorbtion of the untreated (0 μm) cells (=100%). The IC50 values were determined by means of a 4 parameter fit.

Row | SMILES | IC50 [1] | IC50 [2] | IC50 (HeLa)
1 | COc1cc(CNC(=O)c2cccc(NC(=O)c3c(C)nsc3Nc3cnc4ccccc4n3)c2)cc(OC)c1OC [Example 69, 3-Methyl-5-(quinoxalin-2-ylamino)-N-{3-[(3,4,5-trimethoxy-benzyl)carbamoyl]phenyl}-1,2-thiazole-4-carboxamide] | 0.87 µM | 2.6 µM | 4 µM
2 | CC(=O)N1CCN(C(=O)c2cccc(NC(=O)c3c(C)nsc3Nc3cnc4ccccc4n3)c2)CC1 [Example 70, N-{3-[(4-Acetylpiperazin-1-yl)carbonyl]phenyl}-3-methyl-5-(quinoxalin-2-ylamino)-1,2-thiazole-4-carboxamide] | 2.2 µM | 10 µM | 10 µM
3 | Cc1nsc(Nc2cnc3ccccc3n2)c1C(=O)Nc1cccc(C(=O)NCCN2CCOCC2)c1 [Example 71, 3-Methyl-N-(3-{[2-(morpholin-4-yl)ethyl]carbamoyl}-phenyl)-5-(quinoxalin-2-ylamino)-1,2-thiazole-4-carboxamide] | 1.4 µM | 20 µM | 10 µM
4 | Cc1nsc(Nc2cnc3ccccc3n2)c1C(=O)Nc1cccc(C(=O)NCCN2CCCC2)c1 [Example 72, 3-Methyl-N-(3-{[2-(pyrrolidin-1-yl)ethyl]carbamoyl}phenyl)-5-(quinoxalin-2-ylamino)-1,2-thiazole-4-carboxamide] | 0.052 µM | 10 µM | 10 µM
5 | C#CCNC(=O)c1cccc(NC(=O)c2c(C)nsc2Nc2cnc3ccccc3n2)c1 [Example 73, 3-Methyl-N-[3-(prop-2-yn-1-ylcarbamoyl)phenyl]-5-(quinoxalin-2-ylamino)-1,2-thiazole-4-carboxamide] | 0.25 µM | 5.3 µM | 9.4 µM
6 | COC(=O)CCNC(=O)c1cccc(NC(=O)c2c(C)nsc2Nc2cnc3ccccc3n2)c1 [Example 74, Methyl N-[3-({[3-methyl-5-(quinoxalin-2-ylamino)-1,2-thiazol-4-yl]carbonyl}amino)benzoyl]-β-alaninate] | 1.3 µM | 5.3 µM | 10 µM
7 | Cc1nsc(Nc2cnc3ccccc3n2)c1C(=O)Nc1cccc(C(=O)NCCN(C)C)c1 [Example 75, N-(3-{[2-(dimethylamino)ethyl]carbamoyl}phenyl)-3-methyl-5-(quinoxalin-2-ylamino)-1,2-thiazole-4-carboxamide] | 0.015 µM | 10 µM | 10 µM
8 | COC(=O)CN(C)C(=O)c1cccc(NC(=O)c2c(C)nsc2Nc2cnc3ccccc3n2)c1 [Example 76, Methyl N-methyl-N-[3-({[3-methyl-5-(quinoxalin-2-ylamino)-1,2-thiazol-4-yl]carbonyl}amino)benzoyl]-glycinate] | 5 µM | 18 µM | 10 µM
9 | COc1cc(NC(=O)c2cccc(NC(=O)c3c(C)nsc3Nc3cnc4ccccc4n3)c2)cc(OC)c1OC [Example 77, 3-Methyl-5-(quinoxalin-2-ylamino)-N-{3-[(3,4,5-trimethoxy-phenyl)carbamoyl]phenyl}-1,2-thiazole-4-carboxamide] | 2.2 µM | 10 µM | 10 µM
10 | Cc1nsc(Nc2cnc3ccccc3n2)c1C(=O)Nc1cccc(C(=O)N2CCN(c3ccccc3F)CC2)c1 [Example 78, N-(3-{[4-(2-Fluorophenyl)piperazin-1-yl]carbonyl}phenyl)-3-methyl-5-(quinoxalin-2-ylamino)-1,2-thiazole-4-carboxamide] | 0.47 µM | 2 µM | 7 µM
11 | Cc1nsc(Nc2cnc3ccccc3n2)c1C(=O)Nc1cccc(C(=O)N2CCN(c3cnccn3)CC2)c1 [Example 79, 3-Methyl-N-(3-{[4-(pyrazin-2-yl)piperazin-1-yl]carbonyl}-phenyl)-5-(quinoxalin-2-ylamino)-1,2-thiazole-4-carboxamide] | 0.9 µM | 3.7 µM | 10 µM
12 | Cc1nsc(Nc2cnc3ccccc3n2)c1C(=O)Nc1cccc(C(=O)N2CCN(c3ccccc3C#N)CC2)c1 [Example 80, N-(3-{[4-(2-Cyanophenyl)piperazin-1-yl]carbonyl}phenyl)-3-methyl-5-(quinoxalin-2-ylamino)-1,2-thiazole-4-carboxamide] | 1.8 µM | 3.5 µM | 8.3 µM
13 | Cc1nsc(Nc2cnc3ccccc3n2)c1C(=O)Nc1cccc(C(=O)NCCCN2CCCC2)c1 [Example 81, 3-Methyl-N-(3-{[3-(pyrrolidin-1-yl)propyl]carbamoyl}-phenyl)-5-(quinoxalin-2-ylamino)-1,2-thiazole-4-carboxamide] | 10 µM | 11 µM | 10 µM
